Measurements taken from ChEMBL document CHEMBL5634069, “Exploring N-myristoyltransferase as a promising drug target against parasitic neglected tropical diseases” (Eur J Med Chem, 2023).

Tests used:
[1] = Inhibition of Trypanosoma brucei NMT
[2] = Inhibition of Leishmania donovani NMT using 3H-myristoyl CoA as substrate preincubated for 15 mins followed by substrate addition and measured after 80 mins
[3] = Inhibition of recombinant Leishmania donovani NMT
[4] = Binding affinity to Leishmania donovani NMT assessed as apparent inhibition constant; settings: read-out: Ki(app)
[5] = tested on: Leishmania donovani; assay: Antileishmanial activity against Leishmania donovani amastigotes; type: functional, organism-based
[6] = tested on: Leishmania donovani; assay: Antileishmanial activity against Leishmania donovani promastigotes; type: functional, organism-based
[7] = tested on: Trypanosoma brucei brucei; assay: Antitrypanosomal activity against bloodstream Trypanosoma brucei brucei s427 assessed as reduction in parasite growth measured after 72 hrs by inverted microscope based analysis; type: functional, organism-based; settings: s427, 72 h
[8] = tested on: Plasmodium falciparum; assay: Antiplasmodial activity against trophozoite stage Plasmodium falciparum 3D7 assessed as inhibition of plasmodial growth measured after 48 hrs by flow cytometry analysis; type: functional, organism-based; settings: 3D7, 48 h
[9] = tested on: Plasmodium falciparum; assay: Antiplasmodial activity against chloroquine resistant Plasmodium falciparum K1 assessed as inhibition of plasmodial growth measured after 48 hrs by flow cytometry analysis; type: functional, organism-based; settings: K1, 48 h
[10] = Cytotoxicity against MDCK cells incubated overnight by MTT assay; type: toxicity, cell-based, Canis lupus familiaris; settings: dog
[11] = Selectivity index, ratio of IC50 for MDCK cells to IC50 for trophozoite stage Plasmodium falciparum 3D7; type: toxicity; settings: dog; read-out: Ratio IC50
[12] = tested on: Leishmania donovani; assay: Antileishmanial activity against Leishmania donovani MHOM/ET/67/HU3 axenic amastigotes; type: functional, organism-based
[13] = tested on: Leishmania donovani; assay: Antileishmanial activity against Leishmania donovani MHOM/ET/67/HU3 infected in BALB/c mouse model assessed as reduction in parasitic load at 50 mg/kg, po measured after 5 days relative to control; type: functional; set-up: scale not given: the % may be the effect or the level left; settings: time 5 day
[14] = Inhibition of N terminal his-6 tagged recombinant Trypanosoma brucei NMT incubated for 30 mins using biotinylated peptide substrate by scintillation counter analysis
[15] = molecular target: T1, Glycylpeptide N-tetradecanoyltransferase (Plasmodium falciparum, UniProt Q9U419); assay: Inhibition of recombinant N-terminal Plasmodium falciparum NMT expressed in Escherichia coli using peptide substrate preincubated for 5 mins followed by substrate addition and measured after 30 mins by scintillation proximity assay
T1 sequence (Q9U419 whole entry): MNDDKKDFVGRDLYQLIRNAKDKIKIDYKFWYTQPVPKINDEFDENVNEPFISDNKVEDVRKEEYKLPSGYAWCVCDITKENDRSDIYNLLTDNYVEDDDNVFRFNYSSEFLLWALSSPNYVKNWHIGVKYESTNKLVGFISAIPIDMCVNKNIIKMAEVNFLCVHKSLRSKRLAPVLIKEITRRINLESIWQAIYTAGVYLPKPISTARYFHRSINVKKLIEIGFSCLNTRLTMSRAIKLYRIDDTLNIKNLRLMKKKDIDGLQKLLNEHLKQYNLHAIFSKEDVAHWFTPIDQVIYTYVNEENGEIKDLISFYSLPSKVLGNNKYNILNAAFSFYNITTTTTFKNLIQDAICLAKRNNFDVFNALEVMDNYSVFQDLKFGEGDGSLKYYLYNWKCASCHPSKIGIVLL

[16] = tested on: Plasmodium falciparum; assay: Antiplasmodial activity against synchronized late stage trophozoite Plasmodium falciparum 3D7 assessed as reduction in parasitemia relative to control; type: functional; set-up: scale not given: the % may be the effect or the level left
[17] = Inhibition of Trypanosoma brucei NMT by scintillation proximity assay
[18] = tested on: Leishmania donovani; assay: Antileishmanial activity against Leishmania donovani promastigote assessed as reduction in parasite growth measured after 72 hrs; type: functional, organism-based
[19] = tested on: Leishmania amazonensis; assay: Antileishmanial activity against Leishmania amazonensis IFLA/BR/1967/PH8 promastigote; type: functional, organism-based
[20] = Inhibition of N terminal his-6 tagged recombinant Trypanosoma brucei NMT using CAP5.5 peptide as substrate incubated for 10 mins
[21] = tested on: Trypanosoma brucei; assay: Antiprotozoal activity against blood stream form Trypanosoma brucei assessed as reduction in number of viable parasites measured after 72 hrs by Alamar blue staining based analysis; type: functional; settings: read-out: ED50 (the source's name)
[22] = Cytotoxicity against mouse RAW 264 cells by alamar blue staining based analysis; type: functional; settings: RAW264.7, read-out: ED50 (the source's name)
[23] = molecular target: T2, Glycylpeptide N-tetradecanoyltransferase 1 (Homo sapiens, UniProt P30419); assay: Inhibition of human NMT
T2 sequence (P30419 whole entry): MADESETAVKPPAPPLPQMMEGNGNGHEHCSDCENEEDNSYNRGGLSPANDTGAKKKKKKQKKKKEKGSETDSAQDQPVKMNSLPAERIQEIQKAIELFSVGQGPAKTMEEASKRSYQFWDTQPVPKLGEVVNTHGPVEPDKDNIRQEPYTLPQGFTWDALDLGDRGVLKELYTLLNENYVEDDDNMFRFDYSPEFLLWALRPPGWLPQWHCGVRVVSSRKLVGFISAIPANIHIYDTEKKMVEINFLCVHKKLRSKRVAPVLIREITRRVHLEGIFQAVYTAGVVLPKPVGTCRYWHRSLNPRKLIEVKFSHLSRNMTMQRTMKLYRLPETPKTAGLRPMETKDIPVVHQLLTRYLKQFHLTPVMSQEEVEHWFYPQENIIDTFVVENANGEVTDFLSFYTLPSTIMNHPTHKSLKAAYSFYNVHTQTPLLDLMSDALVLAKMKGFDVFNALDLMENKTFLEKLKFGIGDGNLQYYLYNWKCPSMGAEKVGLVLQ

[24] = tested on: Trypanosoma brucei; assay: Antitrypanosomal activity against Trypanosoma brucei assessed as reduction in parasite growth; type: functional, organism-based

Work on `CCOC(=O)CN1C(=O)COc2ccccc21` yielded an IC50 [1] of 12 µM.
With `c1cncc(CCNCc2cccc(-c3cccc(CN4CCc5ncsc5C4)c3)c2)c1` the IC50 [2] was 0.16 µM.
In the case of `CCOC(=O)c1cnc2ccc(OCc3ccc(N4CCNCC4)nc3)cc2c1SCCC#N`, the IC50 [3] is reported as 0.024 µM.
With `Cc1nn(C)c(C)c1NS(=O)(=O)c1c(Cl)cc(-c2ccnc(N3CCNCC3)c2)cc1Cl` the Ki [4] was 0.0025 µM, the EC50 [5] was 7 µM and the EC50 [6] was 23 µM.
`Cc1nc(CN2C(=O)COc3ccccc32)no1` gave an IC50 [1] of 7 µM.
`COc1ccc(Br)c(-c2nnc(-c3ccccc3NS(=O)(=O)c3ccc(Cl)cc3)o2)c1` showed an IC50 [7] of 14.7 µM.
With `O=[N+]([O-])c1ccc(S(=O)(=O)N2CCC(O[C@@H](c3ccc(Cl)cc3)c3ccccn3)CC2)cc1` the IC50 [8] was 3.27 µM, the IC50 [9] was 7.22 µM and the IC50 [10] was over 200 µM. The selectivity ratio [11] was over 61.1.
`Cc1nn(C)c(C)c1N(C(F)F)S(=O)(=O)c1c(Cl)cc(CCCC2CCN(C)CC2)cc1Cl` showed an EC50 [12] of 2.4 µM and an Activity [13] of 52%.
`O=C(O)C1=CC(=C(c2ccc(O)c(C(=O)O)c2)c2ccc(O)c(C(=O)O)c2)C=CC1=O` [AURINTRICARBOXYLIC ACID] gave an IC50 [14] of 0.74 µM.
`O=C(Nc1nc2ccccc2s1)[C@H]1CC[C@@H](NCc2ccc3ccccc3c2)CC1` showed an IC50 [15] of 30 µM and an Activity [16] of 80%.
With `O=S(=O)(c1cc(Cl)ccc1Cl)N1CCC(O[C@@H](c2ccc(Cl)cc2)c2ccccn2)CC1` the IC50 [8] was 2.91 µM, the IC50 [9] was 4.19 µM and the IC50 [10] was over 200 µM. It also gave a selectivity ratio [11] of over 68.8.
For `Cc1cc(CN2C(=O)COc3ccccc32)no1`, the IC50 [1] was 2.9 µM.
Work on `Cc1nn(C)c(C)c1NS(=O)(=O)c1c(Cl)cc(Br)cc1Cl` yielded an IC50 [17] of 0.34 µM.
Work on `CN(C)C(=O)c1ccc2nc(NC(=O)[C@@H]3CCC[C@H](NCc4ccc5ccoc5c4)C3)sc2c1` yielded an IC50 [15] of 53 µM.
Molecule `Cc1ccc(S(=O)(=O)Nc2ccccc2Sc2ncnc3c(C)csc23)cc1` has an IC50 [18] of 32.1 µM and an IC50 [7] of 9.36 µM.
Molecule `O=C(C[Se]C(=O)c1ccccc1)Nc1ccc(Br)cc1` has an IC50 [19] of 5.5 µM.
`O=C(Nc1nc2cc(F)ccc2s1)[C@H]1CC[C@@H](NCc2ccc3ccccc3c2)CC1` gave an IC50 [15] of 53 µM and an Activity [16] of 80%.
For `CC(=O)O[C@@H]1C2[C@H](N(C)C)C(O)=C(C(N)=O)C(=O)[C@@]2(O)C(O)=C2C(=O)c3c(O)cccc3C(=O)[C@@H]21` (stereo partly specified), the IC50 [20] was 0.25 µM, the EC50 [21] was 66 µM and the EC50 [22] was 1500 µM.
In the case of `Cc1c2c(c(O)c3c(O)cccc13)C(=O)OC2c1cc(O)c(C(N)=O)c(O)c1O` (stereo unspecified), the IC50 [14] is reported as 0.77 µM, the IC50 [20] is reported as 0.46 µM and the EC50 [21] is reported as 16 µM. For the same molecule, the EC50 [22] was 328 µM.
In the case of `CCOC(=O)c1c(C)nn(-c2ccc(NS(=O)(=O)c3ccc(OC)cc3)cc2)c1C`, the IC50 [18] is reported as 13.8 µM and the IC50 [7] is reported as 2.91 µM.
For `Cc1cc(CN2C(=O)COc3cc(CCCOC[C@@H]4CCCN4C)ccc32)no1`, the IC50 [1] was 0.009 µM, the IC50 [23] was 24 µM and the EC50 [24] was 0.007 µM.
